From US11685766B2, “14-3-3 targeting peptides for cancer treatment” (Creighton University, priority 2019, dated 2023)
Peptide text beside a SMILES is read from it.

What was measured:
14-3-3ε protein = target: T1, 14-3-3ε protein (Homo sapiens, UniProt P62258); experiment: Differential scanning fluorimetry (DSF) binding; details: 7 μM 14-3-3ε, ΔTm vs peptide concentration, Hill fit; read-out: Kd, binding affinity to 14-3-3ε protein (DSF)
T1 sequence (P62258 1-255): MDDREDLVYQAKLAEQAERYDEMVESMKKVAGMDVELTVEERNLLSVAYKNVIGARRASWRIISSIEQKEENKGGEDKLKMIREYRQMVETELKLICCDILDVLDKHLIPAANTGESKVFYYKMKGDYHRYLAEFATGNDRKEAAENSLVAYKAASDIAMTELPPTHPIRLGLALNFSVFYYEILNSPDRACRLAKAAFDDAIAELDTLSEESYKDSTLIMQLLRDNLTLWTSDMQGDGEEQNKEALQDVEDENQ
Procedure: Differential scanning fluorimetry (DSF) experiments were performed using BioRad CFX384 Real-Time qPCR attached with C1000 Touch Thermo Cycler in the FRET channel. 7 μM subunits of 14-3-3ε protein, ten molar excess of Sypro Orange and 20 mM Tris-HCl, pH 7.4 assay buffer were used in all the melting experiments. Stock solution of peptides were prepared by dissolving 1 mg of lyophilized peptides in 20 mM Tris, pH 7.4 buffer and 0.1 μM to 200 μM dilution series were prepared. Protein melting experiments were performed both in the absence and the presence of increasing concentration of peptides. 15 μL of each samples (in triplicate) were put into each well of a 384-well white PCR plate and sealed with optical adhesive sealer (BioRad MSB-1001) and any air-bubble in the solutions were removed by spinning the plate vertically with PCR plate spinner (Labnet MPS 1000) at 1000 RPM for 3 minutes. The temperature was increased from 25° C. to 95° C. at a rate of 0.7° C. per minute. Melting temperatures of each well were determined using the CFX Maestro software version 2.0 by plotting the first derivative of fluorescence signal against temperature. All the measurements were performed in triplicate and the deviations of melting temperatures (ΔTm) presented for each samples were calculated relatively to three control samples (7 μM 14-3-3ε in the absence of the peptide). Binding constant (Kd) for each peptide was calculated by plotting ΔTm against peptide concentration and data points were fitted with Hill's equation using GraphPad 9.0 software.

SCC12B.2 cells = assay type: cell-based, human; details: 5-FU alone, concentration printed as 2004, FIG. 1D
Procedure: Human skin cancer cell lines (SCC12B.2, SCC13, SRB12) were maintained in Dulbecco's modified Eagle's medium (DMEM) (Invitrogen, Carlsbad, Calif., USA) supplemented with 1% penicillin (10 000 U/ml)-streptomycin (10 000 μg/ml) (PenStrep) (Invitrogen) and 10% fetal bovine serum (Gemini Bio-Products, Sacramento, Calif., USA) at 37° C. and 5% CO2. Normal human epidermal keratinocytes (nHEK) (Thermo Scientific, Waltham, Mass., USA) isolated from neonatal foreskin were cultured in EpiLife medium (Invitrogen) supplemented with human keratinocyte growth supplement (Invitrogen) and 1% PenStrep (Invitrogen). Cells were transfected with control pcDNA or pcDNA3.1-HA-14-3-3ε (Addgene plasmid #48797; http://n2t.net/addgene:48797; RRID:Addgene_48797) using Lipofectamine/Plus reagents (Life Technologies, Carlsbad, Calif., USA) or with siRNA targeting 14-3-3ε (Dharmacon, Lafayette, Colo., USA), 14-3-3γ (Dharmacon), 14-3-3ζ, (Dharmacon), Survivin (Cell Signaling, Danvers, Mass., USA), Akt (Dharmacon) or control siRNA (Santa Cruz Biotechnology, Dallas, Tex., USA) using siQuest transfection reagents (Mirus Bio, Madison, Wis., USA) or treated with Akt inhibitor GSK690693 (Tocris Bioscience, Bristol, United Kingdom) or cell cycle inhibitor 5-Fluorouracil (5-FU) (Thermo Fisher) resuspended in DMSO.
To determine the half maximal inhibitory concentration (IC50) for ES1P2 in SCC12B.2 and nHEK cells, cells were plated in a 96-well plate at a density of 6×10^3 cells/well. Twenty-four hours after plating, cells were treated with increasing concentrations of ES1P2 (0-75 μM) in Opti MEM medium supplemented with reduced serum (Invitrogen) for 4 consecutive days. ES1P2 peptide was resuspended fresh, daily in 25 mM Tris buffer (pH 7.5). Neutral Red Cell Viability assays were performed, where absorbance was measured using a Cytation 5 multi-mode plate reader (BioTek). The experiment was repeated three separate times with 4 replicate wells per experiment to obtain an average IC50 value.
Carcinoma human cell lines (SCC12B.2 and SCC13) were maintained in Dulbecco's modified Eagle's medium (DMEM) (Invitrogen, Carlsbad, Calif., USA) supplemented with 1% penicillin (10 000 U/ml)-streptomycin (10 000 μg/ml) (PenStrep) (Invitrogen) and 10% fetal bovine serum (Gemini Bio-Products, Sacramento, Calif., USA) at 37° C. and 5% CO2. Primary normal human epidermal keratinocytes (nHEK) (Thermo Fisher Scientific, Waltham, Mass., USA) isolated from neonatal foreskin were maintained in EpiLife medium (Invitrogen) supplemented with human keratinocyte growth supplement (HKGS) and 1% PenStrep. nHEK cells were not passaged more than twice before experiments. Cells were treated with CDC25A inhibitor NSC663284 (Tocris Bioscience, Bristol, United Kingdom) suspended in DMSO, transfected with wild type CDC25A or control plasmid using Lipofectamine/Plus transfection reagents (Life Technologies, Carlsbad, Calif., USA) or transfected with siRNA targeting 14-3-3 ε or control siRNA (Santa Cruz Biotechnology, Dallas, Tex., USA) using siQuest transfection reagents (Mirus Bio, Madison, Wis., USA).
To determine the half maximal inhibitory concentration (IC50) for pS and pT in SCC12B.2 cells, cells were plated in a 96-well plate at a density of 6×10^3 cells/well. […] Neutral Red Cell Viability assays were performed, where absorbance was measured using a Cytation 5 multi-mode plate reader (BioTek). […]

| Kd (14-3-3ε protein) [µM] | Structure (SMILES) | SCC cells alive (SCC12B.2 cells) [% alive] |
| --- | --- | --- |
| 9.34 | CC(=O)N[C@@H](CCC(N)=O)C(=O)N[C@@H](CCCNC(=N)N)C(=O)N[C@@H](Cc1ccc(O)cc1)C(=O)N[C@@H](CC(N)=O)C(=O)N[C@@H](COP(=O)(O)O)C(=O)N[C@@H](C)C(=O)N1CCC[C@H]1C(=O)N[C@@H](C)C(=O)N[C@@H](CCCNC(=N)N)C(N)=O [Ac-Gln-Arg-Tyr-Asn-Ser-(PO3^2−)-Ala-Pro-Ala-Arg-NH2] (HELM PEPTIDE1{[ac].Q.R.Y.N.[O=C([C@H](COP(=O)(O)O)N[*:1])[*:2]].A.P.A.R.[am]}$$$$V2.0) |  |
| 2.34 | CC(=O)N[C@@H](CCCNC(=N)N)C(=O)N[C@H](C(=O)N[C@@H](CCCCN)C(=O)N[C@@H](CO)C(=O)N[C@@H](CCCNC(=N)N)C(=O)N[C@H](C(=O)N[C@@H](Cc1ccc(O)cc1)C(=O)N[C@@H](C)C(=O)NCC(N)=O)[C@@H](C)OP(=O)(O)O)[C@@H](C)O [Ac-Arg-Thr-Lys-Ser-Arg-Thr(PO3^2−)-Tyr-Ala-Gly-NH2] (HELM PEPTIDE1{[ac].R.T.K.S.R.[C[C@@H](OP(=O)(O)O)[C@H](N[*:1])C(=O)[*:2]].Y.A.G.[am]}$$$$V2.0) |  |
|  | O=c1[nH]cc(F)c(=O)[nH]1 [5-FU, 5-Fluorouracil, reference compound] | 71.5 |
| 8.29 | CC(=O)N[C@@H](CCC(N)=O)C(=O)N[C@@H](CCCNC(=N)N)C(=O)N[C@@H](Cc1ccccc1)C(=O)N[C@@H](CC(N)=O)C(=O)N[C@@H](COP(=O)(O)O)C(=O)N[C@@H](C)C(=O)N1CCC[C@H]1C(=O)N[C@@H](C)C(=O)N[C@@H](CCCNC(=N)N)C(N)=O [Ac-Gln-Arg-Phe-Asn-Ser-(PO3^2−)-Ala-Pro-Ala-Arg-NH2] (HELM PEPTIDE1{[ac].Q.R.F.N.[O=C([C@H](COP(=O)(O)O)N[*:1])[*:2]].A.P.A.R.[am]}$$$$V2.0) |  |
